Measurements reported in patent US11965039B2, “Compstatin analogues and their medical uses” (priority 2018, dated 2024).
Starred links: 1 amine or outer side, 2 acyl side, 3 side chain; linkers in the order of their positions; H or OH if unused. Positions of bridges follow the written chain, without caps; N, C: chain ends. Non-standard residues stand in square brackets, D forms with d. Residues, ends and D or L forms follow the SMILES beside them. Groups on a side chain read outwards from the residue. *: point of attachment. Trp(1-Me) = Cn1cc(C[C@H](N)C(=O)O)c2ccccc21; C18 diacid = O=C(O)CCCCCCCCCCCCCCCCC(=O)*; γGlu = O=C(O)[C@H](CCC(=O)[*:2])N[*:1]; 2Nal = N[C@@H](Cc1ccc2ccccc2c1)C(=O)O; Nva = CCC[C@H](N)C(=O)O; AEEA = NCCOCCOCC(=O)O; Sar = CNCC(=O)O

system: classical complement pathway; experiment: In vitro haemolysis assay (inhibition of classical complement pathway); assay type: cell-based, human; conditions: Table 5, different residues at position 3 of Ac-IC(1)XWQDWGEHRC(1)T-NH2; read-out: IC50, CP hemolysis
Method in brief: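 Compound dilutions preincubated 15 min at room temperature with diluted human serum (titrated per batch for 70-90% maximal haemolysis), then antibody-sensitized sheep RBC (10^7/well) added for 30 min at 37 °C in Tris/casein buffer, pH 7.4. Stopped with EDTA; haemolysis read at 405 nm; IC50 by 4PL fit.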

| Compound | IC50 [µM] |
| --- | --- |
| CCC[C@@H]1NC(=O)[C@@H](NC(=O)[C@@H](NC(C)=O)[C@@H](C)CC)CSSC[C@@H](C(=O)N[C@H](C(N)=O)[C@@H](C)O)NC(=O)[C@H](CCCNC(=N)N)NC(=O)[C@H](Cc2c[nH]cn2)NC(=O)[C@H](CCC(=O)O)NC(=O)CNC(=O)[C@H](Cc2c[nH]c3ccccc23)NC(=O)[C@H](CC(=O)O)NC(=O)[C@H](CCC(N)=O)NC(=O)[C@H](Cc2c[nH]c3ccccc23)NC1=O [Norvaline, Ac-IC(1)XWQDWGEHRC(1)T-NH2, reference compound] (Ac-IC[Nva]WQDWGEHRCT-NH2; disulfide 2-12) | > 1 |

same assay, conditions: human serum, sensitized sheep red blood cells; Table 3, cells printed in μM; read-out: IC50, inhibition of hemolysis

| Compound | IC50 [µM] |
| --- | --- |
| CC[C@H](C)[C@H](N)C(=O)N[C@H]1CSSC[C@@H](C(=O)N[C@H](C(N)=O)[C@@H](C)O)NC(=O)[C@H](CCCN=C(N)N)NC(=O)[C@H](Cc2cnc[nH]2)NC(=O)[C@H](Cc2cnc[nH]2)NC(=O)CNC(=O)[C@H](Cc2c[nH]c3ccccc23)NC(=O)[C@H](CC(=O)O)NC(=O)[C@H](CCC(N)=O)NC(=O)[C@H](C(C)C)NC(=O)[C@H](C(C)C)NC1=O [Compstatin] | > 5 |

same assay, conditions: human serum, sensitized sheep red blood cells; Table 3, given as upper bounds; read-out: IC50, inhibition of hemolysis

| Compound | IC50 [µM] |
| --- | --- |
| CC[C@H](C)[C@@H]1NC(=O)[C@@H](NC(=O)[C@H](Cc2ccccc2)NC(C)=O)CSSC[C@@H](C(=O)N[C@H](C(=O)NCC(=O)N[C@@H](C)C(=O)N[C@@H](CCC(=O)O)C(=O)N[C@@H](CO)C(N)=O)[C@@H](C)O)NC(=O)[C@H](CCCNC(=N)N)NC(=O)[C@H](Cc2c[nH]cn2)NC(=O)[C@H](CCC(=O)O)NC(=O)CNC(=O)[C@H](Cc2c[nH]c3ccccc23)NC(=O)[C@H](CC(=O)O)NC(=O)[C@H](CCC(N)=O)NC(=O)[C@H](Cc2ccc3ccccc3c2)NC1=O [Compound 64] (Ac-FCI[2Nal]QDWGEHRCTGAES-NH2; disulfide 2-12) | < 0.1 |
| CC[C@H](C)[C@@H]1NC(=O)[C@@H](NC(=O)[C@H](Cc2ccccc2)NC(=O)[C@H](CCC(=O)O)NC(=O)CNC(C)=O)CSSC[C@@H](C(=O)N(C)CC(=O)N[C@@H](CCC(=O)O)C(=O)N[C@@H](C)C(N)=O)NC(=O)[C@H](CCCNC(=N)N)NC(=O)[C@H](Cc2c[nH]cn2)NC(=O)[C@H](CCC(=O)O)NC(=O)CNC(=O)[C@H](Cc2c[nH]c3ccccc23)NC(=O)[C@H](CC(=O)O)NC(=O)[C@H](CCC(N)=O)NC(=O)[C@H](Cc2cn(C)c3ccccc23)NC1=O [Compound 87] (Ac-GEFCI[Trp(1-Me)]QDWGEHRC[Sar]EA-NH2; disulfide 4-14) | < 0.1 |
| CC[C@H](C)[C@@H]1NC(=O)[C@@H](NC(=O)[C@@H](NC(=O)[C@H](CCC(=O)O)NC(=O)CNC(=O)[C@H](CCC(=O)O)NC(C)=O)[C@@H](C)CC)CSSC[C@@H](C(=O)N[C@@H](CCC(=O)O)C(=O)NCC(=O)N[C@@H](CCC(=O)O)C(N)=O)NC(=O)[C@H](CCCNC(=N)N)NC(=O)[C@H](Cc2c[nH]cn2)NC(=O)[C@H](CCC(=O)O)NC(=O)CNC(=O)[C@H](Cc2c[nH]c3ccccc23)NC(=O)[C@H](CC(=O)O)NC(=O)[C@H](CCC(N)=O)NC(=O)[C@H](Cc2c[nH]c3ccccc23)NC1=O [Compound 35] (Ac-EGEICIWQDWGEHRCEGE-NH2; disulfide 5-15) | < 0.5 |
| CC[C@H](C)[C@@H]1NC(=O)[C@@H](NC(=O)[C@H](Cc2ccc(O)cc2)NC(C)=O)CSSC[C@@H](C(=O)N[C@H](C(=O)N[C@@H](CCC(=O)O)C(=O)N[C@@H](CO)C(=O)NCC(=O)N[C@@H](C)C(N)=O)[C@@H](C)O)NC(=O)[C@H](CCCNC(=N)N)NC(=O)[C@H](Cc2c[nH]cn2)NC(=O)[C@H](CCC(=O)O)NC(=O)CNC(=O)[C@H](Cc2c[nH]c3ccccc23)NC(=O)[C@H](CC(=O)O)NC(=O)[C@H](CCC(N)=O)NC(=O)[C@H](Cc2cn(C)c3ccccc23)NC1=O [Compound 69] (Ac-YCI[Trp(1-Me)]QDWGEHRCTESGA-NH2; disulfide 2-12) | < 0.1 |
| CC[C@H](C)[C@H](NC(C)=O)C(=O)N[C@H]1CSSC[C@@H](C(=O)N[C@@H](CCC(=O)O)C(N)=O)NC(=O)[C@H](CCCNC(=N)N)NC(=O)[C@H](Cc2c[nH]cn2)NC(=O)[C@H](C)NC(=O)CNC(=O)[C@H](Cc2c[nH]c3ccccc23)NC(=O)[C@H](CC(=O)O)NC(=O)[C@H](CCC(N)=O)NC(=O)[C@H](Cc2c[nH]c3ccccc23)NC(=O)[C@H]([C@@H](C)CC)NC1=O [Compound 12] (Ac-ICIWQDWGAHRCE-NH2; disulfide 2-12) | < 0.1 |
| CC[C@H](C)[C@@H]1NC(=O)[C@@H](NC(=O)[C@H](Cc2ccccc2)NC(=O)[C@H](CCC(=O)O)NC(=O)[C@H](CO)NC(C)=O)CSSC[C@@H](C(=O)N[C@H](C(=O)N[C@@H](CCC(=O)O)C(=O)NCC(=O)N[C@@H](CCC(=O)O)C(=O)NCC(=O)NCC(=O)NCC(=O)N[C@@H](CCCCNC(=O)CC[C@H](NC(=O)CNC(=O)CC[C@H](NC(=O)CCCCCCCCCCCCCCCCC(=O)O)C(=O)O)C(=O)O)C(N)=O)[C@@H](C)O)NC(=O)[C@H](CCCNC(=N)N)NC(=O)[C@H](Cc2c[nH]cn2)NC(=O)[C@H](CCC(=O)O)NC(=O)CNC(=O)[C@H](Cc2c[nH]c3ccccc23)NC(=O)[C@H](CC(=O)O)NC(=O)[C@H](CCC(N)=O)NC(=O)[C@H](Cc2cn(C)c3ccccc23)NC1=O [Compound 130] (Ac-SEFCI[Trp(1-Me)]QDWGEHRCTEGEGGGK([γGlu-Gly-γGlu-C18 diacid])-NH2; disulfide 4-14) | < 0.1 |
| CC[C@H](C)[C@@H]1NC(=O)[C@@H](NC(=O)[C@H](Cc2ccc(O)cc2)NC(=O)[C@H](CCC(=O)O)NC(=O)[C@H](CO)NC(C)=O)CSSC[C@@H](C(=O)N(C)CC(=O)N[C@@H](CCC(=O)O)C(=O)N[C@@H](CCCCN)C(=O)N[C@@H](CCC(=O)N[C@@H](C)C(=O)N[C@@H](CCCCNC(=O)COCCOCCNC(=O)CC[C@H](NC(=O)COCCOCCNC(=O)CNC(=O)CC[C@H](NC(=O)CCCCCCCCCCCCCCCCC(=O)O)C(=O)O)C(=O)O)C(N)=O)C(=O)O)NC(=O)[C@H](CCCNC(=N)N)NC(=O)[C@H](Cc2c[nH]cn2)NC(=O)[C@H](CCC(=O)O)NC(=O)CN(C)C(=O)[C@H](Cc2c[nH]c3ccccc23)NC(=O)[C@H](CCC(=O)O)NC(=O)[C@H](CCC(N)=O)NC(=O)[C@H](Cc2cn(C)c3ccccc23)NC1=O [Compound 121, Ac-SEYC(1)I[1-Me-Trp]QEW[Sar]EHRC(1)[Sar]EK[γGlu]A-K([17-carboxy-heptadecanoyl][γGlu]G[Peg3][γGlu][Peg3])-NH2] (Ac-SEYCI[Trp(1-Me)]QEW[Sar]EHRC[Sar]EK[γGlu]AK([AEEA-γGlu-AEEA-Gly-γGlu-C18 diacid])-NH2; disulfide 4-14) | < 0.25 |
| CC[C@H](C)[C@H](NC(=O)[C@H](C)NC(=O)[C@H](CO)NC(=O)[C@H](CO)NC(=O)[C@H](CCC(=O)O)NC(C)=O)C(=O)N[C@H]1CSSC[C@@H](C(=O)N[C@H](C(N)=O)[C@@H](C)O)NC(=O)[C@H](CCCNC(=N)N)NC(=O)[C@H](Cc2c[nH]cn2)NC(=O)[C@H](C)NC(=O)CNC(=O)[C@H](Cc2c[nH]c3ccccc23)NC(=O)[C@H](CC(=O)O)NC(=O)[C@H](CCC(N)=O)NC(=O)[C@H](Cc2c[nH]c3ccccc23)NC(=O)[C@H]([C@@H](C)CC)NC1=O [Compound 46] (Ac-ESSAICIWQDWGAHRCT-NH2; disulfide 6-16) | < 0.1 |
| CC[C@H](C)[C@@H]1NC(=O)[C@@H](NC(=O)[C@H](Cc2ccccc2)NC(=O)[C@H](CCC(=O)O)NC(=O)[C@H](CO)NC(C)=O)CSSC[C@@H](C(=O)N(C)CC(=O)N[C@@H](CCC(=O)O)C(=O)NCC(=O)N[C@@H](CCC(=O)O)C(=O)NCCOCCOCC(=O)NCCOCCOCC(=O)N[C@@H](CCCCNC(=O)CC[C@H](NC(=O)CNC(=O)CC[C@H](NC(=O)CCCCCCCCCCCCCCCCC(=O)O)C(=O)O)C(=O)O)C(N)=O)NC(=O)[C@H](CCCNC(=N)N)NC(=O)[C@H](Cc2c[nH]cn2)NC(=O)[C@H](CCC(=O)O)NC(=O)CNC(=O)[C@H](Cc2c[nH]c3ccccc23)NC(=O)[C@H](CC(=O)O)NC(=O)[C@H](CCC(N)=O)NC(=O)[C@H](Cc2cn(C)c3ccccc23)NC1=O [Compound 123] (Ac-SEFCI[Trp(1-Me)]QDWGEHRC[Sar]EGE[AEEA][AEEA]K([γGlu-Gly-γGlu-C18 diacid])-NH2; disulfide 4-14) | < 0.1 |
| CC[C@H](C)[C@@H]1NC(=O)[C@@H](NC(=O)[C@H](Cc2ccccc2)NC(=O)[C@H](CCC(=O)O)NC(=O)[C@H](CO)NC(C)=O)CSSC[C@@H](C(=O)N(C)CC(=O)N[C@@H](CCC(=O)O)C(=O)NCC(=O)N[C@@H](CCC(=O)O)C(=O)NCC(=O)NCC(=O)NCC(=O)N[C@@H](CCCCNC(=O)CC[C@H](NC(=O)CNC(=O)CC[C@H](NC(=O)CCCCCCCCCCCCCCCCC(=O)O)C(=O)O)C(=O)O)C(N)=O)NC(=O)[C@H](CCCNC(=N)N)NC(=O)[C@H](Cc2c[nH]cn2)NC(=O)[C@H](CCC(=O)O)NC(=O)CNC(=O)[C@H](Cc2c[nH]c3ccccc23)NC(=O)[C@H](CC(=O)O)NC(=O)[C@H](CCC(N)=O)NC(=O)[C@H](Cc2cn(C)c3ccccc23)NC1=O [Compound 129] (Ac-SEFCI[Trp(1-Me)]QDWGEHRC[Sar]EGEGGGK([γGlu-Gly-γGlu-C18 diacid])-NH2; disulfide 4-14) | < 0.1 |
| CC[C@H](C)[C@H](NC(C)=O)C(=O)N[C@H]1CSSC[C@@H](C(=O)N[C@H](C(N)=O)[C@@H](C)O)NC(=O)[C@H](CCCNC(=N)N)NC(=O)[C@H](Cc2c[nH]cn2)NC(=O)[C@H](CCC(=O)O)NC(=O)CNC(=O)[C@H](Cc2c[nH]c3ccccc23)NC(=O)[C@H](CC(=O)O)NC(=O)[C@H](CCC(N)=O)NC(=O)[C@H](Cc2cn(C)c3ccccc23)NC(=O)[C@H]([C@@H](C)CC)NC1=O [Compound 4] (Ac-ICI[Trp(1-Me)]QDWGEHRCT-NH2; disulfide 2-12) | < 0.1 |

same assay, conditions: read-out: IC50, inhibition of hemolysis

| Compound | IC50 [µM] |
| --- | --- |
| CC[C@H](C)[C@@H]1NC(=O)[C@@H](NC(=O)[C@H](Cc2ccccc2)NC(=O)[C@H](CCC(=O)O)NC(=O)[C@H](CO)NC(C)=O)CSSC[C@@H](C(=O)N[C@@H](CO)C(=O)N[C@@H](CCC(=O)O)C(=O)N[C@@H](C)C(N)=O)NC(=O)[C@H](CCCNC(=N)N)NC(=O)[C@H](Cc2c[nH]cn2)NC(=O)[C@H](CCC(=O)O)NC(=O)CNC(=O)[C@H](Cc2c[nH]c3ccccc23)NC(=O)[C@H](CC(=O)O)NC(=O)[C@H](CCC(N)=O)NC(=O)[C@H](Cc2cn(C)c3ccccc23)NC1=O [Compound 84] (Ac-SEFCI[Trp(1-Me)]QDWGEHRCSEA-NH2; disulfide 4-14) | < 0.1 |
